Test results taken from the RepoRT retention time repository.

assay: Waters ACQUITY UPLC HSS T3, 0.4 mL/min; A: water + 0.1% formic acid; B: acetonitrile + 0.1% formic acid; gradient (min/%B) 0/5 1.5/5 12/95 14/95 14.01/100 17/100; settings: stereoisomer not certain

| Compound | LC retention time |
| --- | --- |
| Nc1ncnc2c1ncn2C1OC(CO)C(OP(=O)(O)O)C1O (stereo unspecified) | 0.934 min |
| C[N+](C)(C)CCOP(=O)([O-])O | 0.761 min |
| CC=CC=CC=CC1=NCCCC1 | 9.09 min |
| CC(C)C(=O)OC(CC(=O)[O-])C[N+](C)(C)C (stereo unspecified) | 3 min |
| C[N+](C)(C)CCO | 0.706 min |
| C[N+](C)(C)CCOP(=O)([O-])OCC(O)CO (stereo unspecified) | 0.761 min |
| NC(=O)c1cccnc1 | 1.06 min |
| Nc1nc2c(c(=O)[nH]1)NC(C(O)C(O)COP(=O)(O)OP(=O)(O)OP(=O)(O)O)C(O)N2O (stereo unspecified) | 5.68 min |
| CCCCCC=CCC(O)C=CC=CCC=CCCCC(=O)NCCS(=O)(=O)O (stereo unspecified) | 4.09 min |
| CC1(C)OC2(C)C(O)CC1CC2OC1OC(CO)C(O)C(O)C1O (stereo unspecified) | 3.99 min |
| NCCS(=O)(=O)O | 0.777 min |
| CC(=O)C1OC1(O)C(C)=CC=CC(C)=CC=CC=C(C)C=CC=C(C)C=CC1=C(C)CCCC1(C)C (stereo unspecified) | 10.4 min |
| CC1=C2C(CC3(C)OC3CCC3(C)OC3C2O)OC1=O (stereo unspecified) | 6.31 min |
| CCCCCC(C)S (stereo unspecified) | 1.3 min |
| CC1=CC(=O)CC(C)(C)C1(O)CCC(C)OC1OC(COC2OCC(O)(CO)C2O)C(O)C(O)C1O (stereo unspecified) | 4.44 min |
| CC(CP(CCCCCCS(=O)(=O)[O-])CCCCCCS(=O)(=O)[O-])P(CCCCCCS(=O)(=O)[O-])CCCCCCS(=O)(=O)[O-] (stereo unspecified) | 1.02 min |
| CC(CCc1ccccc1)NCC(O)c1ccc(O)c(C(N)=O)c1 (stereo unspecified) | 4.52 min |
| CC12CCC(=O)C=C1CCC1C2C(O)CC2(C)C(C(O)CC(=O)O)CCC12 (stereo unspecified) | 5.01 min |
| CC1(C)CCC2(C(=O)O)CCC3(C)C(=CCC4C5(C)CC(O)C(OC(=O)C=Cc6ccc(O)cc6)C(C)(C)C5CCC43C)C2C1 (stereo unspecified) | 11 min |
| CCCCCCCCCCCCCCCCCC(=O)OCC(O)COP(=O)(O)OCC(O)CO (stereo unspecified) | 5.64 min |
| CCCCCC(O)C=CC1OC(O)CC(O)C1CC=CCC(=O)O (stereo unspecified) | 8.51 min |

| Compound | LC retention time |
| --- | --- |
| CCCCCC=CCC=CCC=CCCCCC(=O)OC(COC(=O)CCCCCCCCCCCCCCC)COP(=O)(O)OCC(O)CO (stereo unspecified) | 13.9 min |
| CCC(=O)C1CC(C)C2(CC(=O)C3(C)C4=C(CCC32C)C2(C)C=CC(=O)C(C)(CO)C2CC4)O1 (stereo unspecified) | 5.53 min |
| CCCCCCOC(=O)CC(C)S (stereo unspecified) | 0.838 min |
| C=Cc1c2[nH]c(c1C)Cc1[nH]c(c(CCC(=O)O)c1C)Cc1[nH]c(c(C)c1CCC(=O)O)Cc1[nH]c(c(C)c1C=C)C2 | 4.78 min |
| O=C(O)CC1CCC(=O)C1CC=CCCOC1OC(CO)C(O)C(O)C1O (stereo unspecified) | 0.755 min |
| CC(C)CC(NC(=O)OC(C)(C)C)C(=O)O (stereo unspecified) | 3 min |
| CCCCCCCCCCCCCCCCCC(=O)NC(Cc1ccc(O)cc1)C(=O)O (stereo unspecified) | 9.13 min |
| CC1C(=O)OC2C3=C(C(=O)CC3(C)O)C(C)(O)CCC12 (stereo unspecified) | 6.31 min |
| CN1CC(c2ccc(O)cc2)OC1(C)C (stereo unspecified) | 4.98 min |
| CC(=O)OCC[N+](C)(C)C | 0.772 min |
| O=c1[nH]cnc2[nH]ncc12 | 1.1 min |
| CC(C)=CCCC(C)CCOC1OC(CO)C(O)C(O)C1OC1OC(CO)C(O)C(O)C1O (stereo unspecified) | 4.52 min |
| O=C(O)CCNCC(=O)O | 0.786 min |
| NCC1CCC(C(=O)O)CC1 (stereo unspecified) | 0.828 min |
| CCCCCCCCCCCCCCCCCCOC(=O)CC(O)(CC(=O)O)C(=O)O (stereo unspecified) | 10.5 min |
| CSCCC(N)C(=O)NC(CCCN=C(N)N)C(=O)O (stereo unspecified) | 3.75 min |
| CCC=CCC(O)C=CC=CC=CC=CC(O)C(O)CC=CCCC(=O)O (stereo unspecified) | 5.01 min |
| CC1=CC(c2c(O)c(C(=O)CCc3ccccc3)c(O)c(C3C=C(C)CCC3C(C)C)c2O)C(C(C)C)CC1 (stereo unspecified) | 11 min |
| CC1(C)C(O)CC(O)C23C(=O)OC4OCC(=CCC12)C43 (stereo unspecified) | 6.31 min |
| CC(C)(OC1OC(CO)C(O)C(O)C1O)C1CCC(O)(CO)CC1 (stereo unspecified) | 5.08 min |
| CC1(O)CCC(C(C)(C)OC2OC(CO)C(O)C(O)C2O)CC1O (stereo unspecified) | 5.08 min |

| Compound | LC retention time |
| --- | --- |
| C=CC(C)(CCC=C(C)CCC=C(C)CCC(OC1OC(CO)C(O)C(O)C1O)C(C)(C)O)OC1OC(CO)C(O)C(O)C1O (stereo unspecified) | 4.81 min |
| Nc1ncnc2c1ncn2C1OC(CO)C(O)C1OP(=O)(O)O (stereo unspecified) | 0.934 min |
| CC(C)=CCCC(C)(O)C1CCC2(C)C1C(O)CC1C3(C)CCC(OC4OC(CO)C(O)C(O)C4OC4OC(CO)C(O)C(O)C4O)C(C)(C)C3CCC12C (stereo unspecified) | 9.82 min |
| CC(=O)C1CCC2C3CC=C4CC(O)CCC4(C)C3CCC12C (stereo unspecified) | 11.8 min |
| Nc1[nH]c(=O)nc2c1ncn2C1CC(O)C(COP(=O)(O)O)O1 (stereo unspecified) | 0.934 min |
| CCCCCC=CCC(O)CC=CC=CC(SCC(N)C(=O)O)C(O)CCCC(=O)O (stereo unspecified) | 9.02 min |
| CCCCCC=CCC=CCC=CCCCCC(=O)OCC(COP(=O)(O)OCC(O)CO)OC(=O)CCCCCCCCCCCCCCC (stereo unspecified) | 13.9 min |
| CCCCCC(N)C(=O)O (stereo unspecified) | 0.772 min |
| CC(C)OC(=O)C(C(=O)OC(C)C)=C1SCCS1 | 1.14 min |
| CCC(C)C(N)C(=O)NC(CCC(=O)O)C(=O)O (stereo unspecified) | 1.05 min |
| CC(CCC(=O)NCCS(=O)(=O)O)C1CCC2C3C(O)CC4CC(O)CCC4(C)C3CC(O)C12C (stereo unspecified) | 4.43 min |
| OCCOCCOCCOCCOCCOCCOCCO | 3.99 min |
| CCCC(=O)OC(CC(=O)[O-])C[N+](C)(C)C (stereo unspecified) | 3 min |
| CNCC(=O)O | 0.806 min |
| CCC=CCC=CCC=CCC=CCC=CCC=CCCC(=O)OC(CO)COP(=O)(O)OCCN (stereo unspecified) | 4.65 min |
| Cc1cc(O)c2c(c1O)C(=O)C1=C(C2=O)C(=O)C2C(O)C1C1C(O)CC(=O)C3=C(O)c4c(O)cc(C)c(O)c4C(=O)C321 (stereo unspecified) | 1.11 min |
| CC(C)C1=CC2(O)CCC3C(C)(C(=O)O)CCCC3(C)C2CC1=O (stereo unspecified) | 4.99 min |
| CC1(C)C2C(O)CC(C)(C2O)C1OC1OC(CO)C(O)C(O)C1O (stereo unspecified) | 3.99 min |
| CC(C)CC(N)C(=O)NC(CCC(=O)O)C(=O)O (stereo unspecified) | 1.05 min |
| CC(=O)OC(CC(=O)[O-])C[N+](C)(C)C (stereo unspecified) | 0.839 min |
| CC(CCC(=O)NCCS(=O)(=O)O)C1CCC2C3C(O)C(O)C4CC(O)CCC4(C)C3CCC12C (stereo unspecified) | 4.43 min |

| Compound | LC retention time |
| --- | --- |
| CCCCC(CC)CS (stereo unspecified) | 0.766 min |
| CCC=CCC=CCC(O)C=CC=CC=CC(O)CCCC(=O)O (stereo unspecified) | 4.99 min |
| O=C(O)CCCC(O)C=CC=CCCC(O)CC=CCCCCC(O)(O)O (stereo unspecified) | 8.55 min |
| CCCCCCCCCCCCCCCCCC(=O)OC(CO)COP(=O)(O)OCC(O)CO (stereo unspecified) | 5.64 min |
| CC(C)CC(N)C(=O)O (stereo unspecified) | 1.31 min |
| CCCCCC=CCC=CCCCCCCCC(=O)OCC(COP(=O)(O)OCC(O)CO)OC(=O)CCCCCCCC=CCCCCCC (stereo unspecified) | 13.9 min |
| C=C(CCC)C(N)C(=O)O (stereo unspecified) | 0.818 min |
| C=C(C)C1CCC(C)(O)C1CC1=C(O)C(=C(O)c2ccccc2)C(=O)C(CC=C(C)C)(CC=C(C)C)C1=O (stereo unspecified) | 8.61 min |
| CC(C)C(N)C(=O)O (stereo unspecified) | 1.02 min |
| NCCC(=O)O | 0.806 min |
| CCCC(=O)OCCC(S)CCC (stereo unspecified) | 0.838 min |
| CC1=CC(=O)C2(C(C)C)C(=O)C3=C(C(O)C4OC(=O)C35CCCC(C)(C)C45)C12 (stereo unspecified) | 10.6 min |
| CC1OC(CC(=O)O)Cc2c1c(O)c1c(O)c(-c3cc(=O)c4c(=O)c5c(c(=O)c=4c3=O)C(C)OC(CC(=O)O)C5)cc(O)c1c2O (stereo unspecified) | 1.05 min |
| CCCCCCC=CCCCCCCCC(=O)OCC(O)COP(=O)(O)OCCN (stereo unspecified) | 4.91 min |
| CC1CCC2(NC1)OC1CC3C4CC=C5CC(OC6OC(CO)C(OC7OC(C)C(O)C(O)C7O)C(O)C6O)CCC5(C)C4CCC3(C)C1C2C (stereo unspecified) | 9.86 min |
| C[N+](C)(C)CCCC(=O)[O-] | 0.772 min |
| C=C1C(=O)OC2C1CCC(=O)CC1(C)CCC(O)OC21 (stereo unspecified) | 6.31 min |
| CCC(C)C(=O)OC1CC(C)(O)C=C2C=CC(C)C(CCC3CC(O)CC(=O)O3)C21 (stereo unspecified) | 5.18 min |
